# The RepoRT retention time repository
# Assay: RP, Waters ACQUITY Premier BEH C18, 100 × 2.1 mm, 1.7 µm, 40 °C, 0.3 to 0.4 mL/min, estimated dead time 0.73 min; A: water + 0.1% formic acid; B: acetonitrile + 0.1% formic acid; gradient (min/%B) 0/0.5 0.1/0.5 10/80 10.1/99.5 12/0.5 12.1/0.5 14.5/0.5
# Conditions: stereoisomer not certain
row,LC retention time,SMILES
1,1.76 min,O=C(O)CCC(=O)O [SUCCINATE]
2,4.41 min,O=c1c(OC2OC(CO)C(O)C(O)C2O)c(-c2ccc(O)c(O)c2)oc2cc(O)cc(O)c12 (configuration not stated) [QUERCETIN 3-GALACTOSIDE]
3,5.61 min,O=C(O)C=Cc1c[nH]c2ccccc12 [INDOLEACRYLIC ACID]
4,3.33 min,CC1(O)CCOC(=O)C1 (configuration not stated) [MEVALOLACTONE]
5,7.67 min,O=C(O)CCCCCCCCCCCCCCC(=O)O [HEXADECANEDIOIC ACID]
6,2.1 min,Cc1ncc(CO)c(CO)c1O [PYRIDOXINE]
7,8.15 min,CCCCCCC=CCCCCCCCC(=O)O [PALMITOLEIC ACID]
8,3.33 min,Nc1ncnc2c1ncn2C1CC(O)C(CO)O1 (configuration not stated) [DEOXYADENOSINE]
9,4.25 min,CC1OC(OCC2OC(Oc3c(-c4ccc(O)c(O)c4)oc4cc(O)cc(O)c4c3=O)C(O)C(O)C2O)C(O)C(O)C1O (configuration not stated) [RUTIN]
10,7.18 min,COc1cc(C=CC(=O)CC(=O)C=Cc2ccc(O)c(OC)c2)ccc1O [CURCUMIN]
11,2.42 min,O=C(O)CNC(=O)c1ccc(O)cc1 [4-HYDROXYHIPPURIC ACID]
12,2.02 min,NC(=O)c1ccc[n+](C2OC(COP(=O)(O)OP(=O)(O)OCC3OC(n4cnc5c(=O)[nH]cnc54)C(O)C3O)C(O)C2O)c1 (configuration not stated) [NICOTINAMIDE HYPOXANTHINE DINUCLEOTIDE]
13,3.97 min,COC(=O)CCC(=O)OC [DIMETHYL SUCCINATE]
14,0.916 min,O=C(O)C1CCCN1 (configuration not stated) [PROLINE]
15,4.66 min,COc1cc(CC(=O)O)ccc1O [HOMOVANILLATE]
16,3.91 min,COc1cc(C(=O)O)ccc1O [VANILLIC ACID]
17,4.68 min,CC1OC(Oc2c(-c3ccc(O)c(O)c3)oc3cc(O)cc(O)c3c2=O)C(O)C(O)C1O (configuration not stated) [QUERCITRIN]
18,4.92 min,"CC(C)CC1NC(=O)C2CCCN2C1=O [L,L-CYCLO(LEUCYLPROLYL)]"
19,7.95 min,COC(=O)C=Cc1ccccc1 [METHYL CINNAMATE]
20,3.49 min,"O=Cc1ccc(O)c(O)c1 [3,4-DIHYDROXYBENZALDEHYDE]"
21,3.4 min,Cc1ncc(CO)c(C(=O)O)c1O [4-PYRIDOXATE]

row,LC retention time,SMILES
1,4.24 min,O=C(O)c1ccc2ccccc2n1 [2-QUINOLINECARBOXYLATE]
2,4.46 min,Oc1ccc(O)cc1 [HYDROQUINONE]
3,1.57 min,Nc1nc2c(ncn2C2OC(COP(=O)(O)O)C(O)C2O)c(=O)[nH]1 (configuration not stated) [GUANOSINE MONOPHOSPHATE]
4,7.13 min,CC(CCC(=O)O)C1CCC2C3C(O)CC4CC(O)CCC4(C)C3CC(O)C12C (configuration not stated) [CHOLATE]
5,2.75 min,CC(O)(CCO)CC(=O)O (configuration not stated) [MEVALONATE]
6,6.03 min,O=C(O)CCCCCCCCC(=O)O [SEBACATE]
7,2.2 min,CC(=O)NC(CCC(=O)O)C(=O)O (configuration not stated) [N-ACETYLGLUTAMATE]
8,7.23 min,"O=c1cc(-c2ccccc2)oc2cc(O)cc(O)c12 [5,7-DIHYDROXYFLAVONE]"
9,1.1 min,CC(=O)NC(CC(N)=O)C(=O)O (configuration not stated) [N-ACETYLASPARAGINE]
10,2.03 min,CCC(NC(=O)CCC(N)C(=O)O)C(=O)NCC(=O)O (configuration not stated) [OPHTHALMATE]
11,8.84 min,CCCCCCCCCCCCCCCC(=O)NCCO [PALMITOYLETHANOLAMIDE]
12,2.36 min,Cc1cn(C2OC(CO)C(O)C2O)c(=O)nc1N (configuration not stated) [5-METHYLCYTIDINE]
13,8.3 min,CCCCCCCCCCCCC(O)C(=O)O (configuration not stated) [2-HYDROXYMYRISTIC ACID]
14,1.03 min,CC(=O)NCCC(=O)O [N-ACETYL-BETA-ALANINE]
15,1.46 min,CSCCC(N)C(=O)O (configuration not stated) [ISTD_METHIONINE-METHYL-D3]
16,7.65 min,CCCCCCCCCC(O)CC(=O)O (configuration not stated) [3-HYDROXYDODECANOIC ACID]
17,6.04 min,O=c1oc2cc(O)ccc2c2oc3cc(O)ccc3c12 [COUMESTEROL]
18,1.24 min,Cc1cn(C2OC(CO)C(O)C2O)c(=O)[nH]c1=O (configuration not stated) [RIBOTHYMIDINE]
19,6.4 min,CC1(C(=O)O)CCC2(C)CCC3(C)C(=CC(=O)C4C5(C)CCC(OC6OC(C(=O)O)C(O)C(O)C6OC6OC(C(=O)O)C(O)C(O)C6O)C(C)(C)C5CCC43C)C2C1 (configuration not stated) [GLYCYRRHIZIN]
20,1.35 min,Nc1ncnc2c1ncn2C1OC(COP(=O)(O)O)C(O)C1O (configuration not stated) [ADENOSINE-MONOPHOSPHATE]
21,5.38 min,Cc1ccccc1C(=O)O [2-METHYLBENZOIC ACID]

row,LC retention time,SMILES
1,5.66 min,CC1C(=O)OC2CC34C5CC(C(C)(C)C)C36C(OC(=O)C6O)OC4(C(=O)O5)C21O (configuration not stated) [GINKGOLIDE A]
2,5.75 min,CC1C(=O)Nc2ccccc21 (configuration not stated) [3-METHYL-2-OXINDOLE]
3,0.894 min,CCC(=O)OC(CC(=O)[O-])C[N+](C)(C)C (configuration not stated) [PROPIONYLCARNITINE]
4,7.22 min,O=C(C=CC=Cc1ccc2c(c1)OCO2)N1CCCCC1 [PIPERINE]
5,3.95 min,Cn1c(=O)[nH]c2ncn(C)c2c1=O [PARAXANTHINE]
6,5.88 min,COc1cc(C2Oc3cc(C4Oc5cc(O)cc(O)c5C(=O)C4O)ccc3OC2CO)ccc1O (configuration not stated) [SILIBININ]
7,4.02 min,Nc1nc2ncc(CNc3ccc(C(=O)NC(CCC(=O)O)C(=O)O)cc3)nc2c(=O)[nH]1 (configuration not stated) [FOLATE]
8,5.52 min,O=C(O)CCCCCCCC(=O)O [AZELATE]
9,0.888 min,O=CC(O)C(O)C(O)C(O)CO (stereo not drawn) [ISTD_ D(+)-GLUCOSE-13C6]
10,7.62 min,CC(CCC(=O)NCC(=O)O)C1CCC2C3CCC4CC(O)CCC4(C)C3CCC12C (configuration not stated) [LITHOCHOLIC ACID GLYCINE CONJUGATE]
11,7.94 min,COc1ccccc1C=CC=O [CASSIASTEAROPTENE]
12,4.57 min,O=c1c(-c2ccc(O)cc2)coc2cc(OC3OC(CO)C(O)C(O)C3O)cc(O)c12 (configuration not stated) [GENISTIN]
13,4.3 min,Cn1c(=O)c2c(ncn2C)n(C)c1=O [CAFFEINE]
14,4.45 min,CC(O)CC(=O)O (configuration not stated) [3-HYDROXYBUTANOATE]
15,6.87 min,CC1(C)OC2CC(=O)OCC23C1CC(=O)C1(C)C3CCC2(C)C(c3ccoc3)OC(=O)C3OC321 (configuration not stated) [LIMONIN]
16,1.82 min,Cc1cn(C2CC(O)C(COP(=O)(O)OP(=O)(O)OC3OC(CO)C(O)C(O)C3O)O2)c(=O)[nH]c1=O [DTDP-D-GLUCOSE]
17,3.98 min,COc1cc(C(=O)O)cc(OC)c1O [SYRINGIC ACID]
18,2.44 min,Nc1nc2nccnc2c(=O)[nH]1 [PTERIN]
19,5.04 min,NC(=O)c1ccccc1O [SALICYLAMIDE]
20,1.3 min,Nc1ncnc2nc[nH]c12 [ADENINE]
21,7.65 min,C=C1C(=O)OC2C=C(C)CCC=C(C)CCC12 (configuration not stated) [COSTUNOLIDE]

row,LC retention time,SMILES
1,1.86 min,"OCC(O)c1ccc(O)c(O)c1 (configuration not stated) [3,4-DIHYDROXYPHENYLGLYCOL]"
2,1.62 min,"O=C(O)C(O)c1ccc(O)c(O)c1 (configuration not stated) [3,4 DIHYDROXYMANDELATE]"
3,3.54 min,O=C(O)Cc1cccc(O)c1 [3-HYDROXYPHENYLACETATE]
4,5.64 min,CC1C(=O)OC2C(O)C34C5CC(C(C)(C)C)C36C(OC(=O)C6O)OC4(C(=O)O5)C12O (configuration not stated) [GINKGOLIDE B]
5,3.9 min,NC(=O)CCC(NC(=O)Cc1ccccc1)C(=O)O (configuration not stated) [PHENYLACETYLGLUTAMINE]
6,7.39 min,CCCCCCCCCCCCCC=CC(O)C(N)CO (configuration not stated) [SPHINGOSINE]
7,0.94 min,"Nc1ccn(C2OC(CO)C3OP(=O)(O)OC32)c(=O)n1 (configuration not stated) [CYTIDINE 2',3'-CYCLIC PHOSPHATE]"
8,1.7 min,O=c1ccn(C2CC(O)C(COP(=O)(O)O)O2)c(=O)[nH]1 (configuration not stated) [DEOXYURIDINE-MONOPHOSPHATE]
9,1.49 min,Nc1cc(O)cc(C(=O)O)c1 [3-AMINO-5-HYDROXYBENZOATE]
10,1.34 min,O=C(O)c1cc(O)c(O)c(O)c1 [GALLIC ACID]
11,7.49 min,COc1cc(CNC(=O)CCCCCCC(C)C)ccc1O [DIHYDROCAPSAICIN]
12,6.09 min,O=C(O)CCCCCCCCCC(=O)O [UNDECANEDIOIC ACID]
13,1.37 min,Nc1cc(C(=O)O)ccc1O [3-AMINO-4-HYDROXYBENZOATE]
14,6.03 min,O=C(CCc1ccc(O)cc1)c1c(O)cc(O)cc1O [PHLORETIN]
15,1.22 min,C=CCSCC(N)C(=O)O (configuration not stated) [S-ALLYLCYSTEINE]
16,4.88 min,O=Cc1ccc(O)cc1 [4-HYDROXYBENZALDEHYDE]
17,1.4 min,COC(=O)CCCN [METHYL 4-AMINOBUTYRATE]
18,4.8 min,CCCCC(=O)C(=O)O [2-KETOHEXANOIC ACID]
19,7.07 min,O=C(O)c1cc(O)c2c(c1)C(=O)c1cccc(O)c1C2=O [RHEIN]
20,2.45 min,O=c1ccn(C2OC(CO)C(O)C2O)c(=O)[nH]1 (configuration not stated) [URIDINE]
21,4.51 min,O=C(O)c1ccccc1 [BENZOATE]

row,SMILES,LC retention time
1,CCCCC(CC)COC(=O)c1ccccc1C(=O)OCC(CC)CCCC (configuration not stated) [BIS(2-ETHYLHEXYL)PHTHALATE],10.7 min
2,O=C(O)CCCCCCCCCO [10-HYDROXYDECANOATE],6.11 min
3,COc1ccc2c3c([nH]c2c1)C(C)=NCC3 [HARMALINE],4.51 min
4,O=C(O)Cc1cnc[nH]1 [4-IMIDAZOLEACETATE],0.92 min
5,COC(=O)C1=CCCN(C)C1 [ARECOLINE],1.02 min
6,NCCc1ccc(O)cc1 [TYRAMINE],2.81 min
7,NCCc1c[nH]c2ccc(O)cc12 [SEROTONIN],3.44 min
8,CCCCCCCCCC(=O)OCC(COP(=O)([O-])OCC[N+](C)(C)C)OC(=O)CCCCCCCCC (configuration not stated) [DIDECANOYL-GLYCEROPHOSPHOCHOLINE],8.51 min
